Measurements from ChEMBL document CHEMBL1201862, “PubChem BioAssay data set” (2004).
The source made the active and inactive calls.

Columns and labels:
[1] = target: Glycogen synthase kinase-3 alpha (Homo sapiens, UniProt P49840); assay: GSK3A enzyme blockers, homolog specificity check – biochemical, microfluidics, dry powder samples, set 2, selectivity assay for GSK3beta inhibitor project, dose response (AID 623978); assay type: functional
[2] = target: Glycogen synthase kinase-3 beta (Homo sapiens, UniProt P49841); assay: inhibition of human GSK3B activity – biochemical, microfluidics, dry powder samples, set 2, dose response (AID 623989); assay type: functional
[3] = DRD fibroblast viability loss – cell-based, non-viral oncogenic, luminescence, dose response (AID 1934); assay type: functional; conditions: Homo sapiens
[4] = target: T1, Kappa-type opioid receptor (Homo sapiens, UniProt P41145); assay type: functional
T1 sequence (P41145 whole entry): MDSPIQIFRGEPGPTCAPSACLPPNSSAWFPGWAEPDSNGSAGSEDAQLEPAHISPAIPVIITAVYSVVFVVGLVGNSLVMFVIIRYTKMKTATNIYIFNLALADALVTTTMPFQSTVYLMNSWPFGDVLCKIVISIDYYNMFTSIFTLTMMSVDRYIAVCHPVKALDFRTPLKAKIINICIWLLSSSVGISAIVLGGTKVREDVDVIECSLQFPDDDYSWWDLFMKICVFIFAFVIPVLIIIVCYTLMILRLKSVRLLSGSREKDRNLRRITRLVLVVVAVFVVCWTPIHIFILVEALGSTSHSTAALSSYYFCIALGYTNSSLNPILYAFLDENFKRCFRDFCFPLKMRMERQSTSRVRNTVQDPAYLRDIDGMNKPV

[5] = Luminescence-based dose response cell-based high throughput screening assay for cytotoxic compounds using the IEC-6 intestinal epithelial cell line. [Related pubchem assays: 1858 (Summary AID.), 1825 (Counterscreen.), 1907 (Confirmation screen.)]; assay type: functional
[6] = target: T2, Polyadenylate-binding protein 1 (Homo sapiens, UniProt P11940); assay: MLLE domain peptide-binding blockers, IC50 – biochemical, fluorescence polarization, FITC-PAM2 peptide, dose response (AID 602259); assay type: functional; conditions: read-out: IC50_Mean
T2 sequence (P11940 whole entry, the tested form may be a part): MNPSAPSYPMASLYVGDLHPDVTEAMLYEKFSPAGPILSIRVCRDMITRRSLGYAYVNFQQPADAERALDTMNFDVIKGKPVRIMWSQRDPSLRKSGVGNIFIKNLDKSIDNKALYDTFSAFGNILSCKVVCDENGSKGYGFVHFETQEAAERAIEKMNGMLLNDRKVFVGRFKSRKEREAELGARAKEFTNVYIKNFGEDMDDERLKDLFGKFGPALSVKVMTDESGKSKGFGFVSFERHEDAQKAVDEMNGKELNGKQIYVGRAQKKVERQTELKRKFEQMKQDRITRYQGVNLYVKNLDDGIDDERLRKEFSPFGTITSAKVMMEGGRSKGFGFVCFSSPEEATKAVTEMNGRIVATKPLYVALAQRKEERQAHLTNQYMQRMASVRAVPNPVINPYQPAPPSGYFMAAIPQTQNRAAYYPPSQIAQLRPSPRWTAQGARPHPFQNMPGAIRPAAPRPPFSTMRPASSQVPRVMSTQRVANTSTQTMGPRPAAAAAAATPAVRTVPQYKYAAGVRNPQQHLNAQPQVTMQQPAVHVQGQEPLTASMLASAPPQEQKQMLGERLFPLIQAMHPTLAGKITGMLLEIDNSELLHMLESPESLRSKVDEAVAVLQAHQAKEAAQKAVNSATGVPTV

Beta-galactosidase [7] = target: T3, Beta-galactosidase (Escherichia coli, UniProt Q8VNN2); assay type: functional
T3 sequence (Q8VNN2 whole entry): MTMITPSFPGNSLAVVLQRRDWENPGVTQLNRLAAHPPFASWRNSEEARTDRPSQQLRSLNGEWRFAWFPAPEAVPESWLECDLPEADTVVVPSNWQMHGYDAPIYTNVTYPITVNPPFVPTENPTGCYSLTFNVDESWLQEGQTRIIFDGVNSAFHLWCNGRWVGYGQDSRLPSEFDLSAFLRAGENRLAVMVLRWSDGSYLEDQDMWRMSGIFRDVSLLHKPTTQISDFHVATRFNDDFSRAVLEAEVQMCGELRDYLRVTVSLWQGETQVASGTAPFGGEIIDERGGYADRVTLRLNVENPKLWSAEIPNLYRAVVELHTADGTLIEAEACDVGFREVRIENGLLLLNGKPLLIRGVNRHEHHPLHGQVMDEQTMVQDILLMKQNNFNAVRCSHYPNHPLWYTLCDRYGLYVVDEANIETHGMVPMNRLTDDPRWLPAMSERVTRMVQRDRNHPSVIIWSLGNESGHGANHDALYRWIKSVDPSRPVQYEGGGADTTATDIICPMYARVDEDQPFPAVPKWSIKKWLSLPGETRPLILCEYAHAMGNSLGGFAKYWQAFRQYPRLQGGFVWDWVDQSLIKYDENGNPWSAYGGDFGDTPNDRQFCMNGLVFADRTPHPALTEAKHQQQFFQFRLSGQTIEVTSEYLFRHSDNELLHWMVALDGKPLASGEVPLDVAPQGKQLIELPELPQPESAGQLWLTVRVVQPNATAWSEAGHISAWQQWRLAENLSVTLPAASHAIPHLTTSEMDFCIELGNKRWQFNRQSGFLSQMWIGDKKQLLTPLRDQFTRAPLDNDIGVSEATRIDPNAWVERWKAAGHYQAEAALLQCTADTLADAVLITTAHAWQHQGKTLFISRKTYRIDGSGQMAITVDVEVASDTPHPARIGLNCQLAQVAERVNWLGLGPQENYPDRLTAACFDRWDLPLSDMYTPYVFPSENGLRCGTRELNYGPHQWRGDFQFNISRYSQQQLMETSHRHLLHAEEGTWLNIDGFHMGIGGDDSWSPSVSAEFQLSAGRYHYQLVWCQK

[8] = non-specific 3'UTR reporter inhibition in Clone20-Shn3RL – cell-based, Renilla luciferase, cherry-picked, counter-screen for Shn3 inhibitor project, dose response (AID 624133); assay type: functional
[9] = target: T4, Delta-type opioid receptor (Homo sapiens, UniProt P41143); assay: HTS Image-Based Screen for Antagonists of the DOR Receptor. [Related pubchem assays (depositor defined):AID1777, AID1785, AID1786, AID2133]; assay type: functional
T4 sequence (P41143 whole entry): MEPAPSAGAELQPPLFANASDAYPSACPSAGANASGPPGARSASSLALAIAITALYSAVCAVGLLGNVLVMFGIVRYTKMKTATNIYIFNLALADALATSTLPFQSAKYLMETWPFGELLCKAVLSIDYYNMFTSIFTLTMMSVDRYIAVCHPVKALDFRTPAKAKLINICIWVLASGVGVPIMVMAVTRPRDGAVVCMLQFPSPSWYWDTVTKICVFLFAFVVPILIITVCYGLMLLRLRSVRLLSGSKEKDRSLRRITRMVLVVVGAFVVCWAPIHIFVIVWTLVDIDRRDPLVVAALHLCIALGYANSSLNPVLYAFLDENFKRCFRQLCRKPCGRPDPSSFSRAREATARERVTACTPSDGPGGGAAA

[10] = HEK-293T viability loss after treatment – luminescence, T-cell screen hits, cytotoxicity control for TCR NF-kB inhibitor project, dose response (AID 489026); assay type: functional, cell-based;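 further: cells exposed to compound about 14 hours before the viability readout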
[11] = reduction of Shn3 3'UTR-driven luciferase in osteoblasts – cell-based, Clone20 osteoblasts, firefly luciferase, cherry-picked, dose response (AID 624132); assay type: functional;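 further: firefly luciferase luminescence from reporter carrying the Shn3 3'UTR in osteoblasts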
Vero [12] = assay: cells; assay type: functional, cell-based; conditions: Chlorocebus sabaeus
[13] = target: Type-1 angiotensin II receptor (Homo sapiens, UniProt P30556); assay: antagonism of angiotensin II type 1 receptor – cell-based, uHTS hits, selectivity assay for APJ receptor antagonist project, dose response (AID 463214); assay type: functional;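 further: antagonist potency against angiotensin II stimulated AT1 response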
Vero [14] = assay: cells; assay type: functional; conditions: Chlorocebus sabaeus
[15] = target: 72 kDa type IV collagenase (Homo sapiens, UniProt P08253); assay: Dose Response validation of uHTS RPN11 inhibitor hits using a MMP-2 Fluorescence assay.; assay type: functional
Sequence of 72 kDa type IV collagenase (P08253 whole entry): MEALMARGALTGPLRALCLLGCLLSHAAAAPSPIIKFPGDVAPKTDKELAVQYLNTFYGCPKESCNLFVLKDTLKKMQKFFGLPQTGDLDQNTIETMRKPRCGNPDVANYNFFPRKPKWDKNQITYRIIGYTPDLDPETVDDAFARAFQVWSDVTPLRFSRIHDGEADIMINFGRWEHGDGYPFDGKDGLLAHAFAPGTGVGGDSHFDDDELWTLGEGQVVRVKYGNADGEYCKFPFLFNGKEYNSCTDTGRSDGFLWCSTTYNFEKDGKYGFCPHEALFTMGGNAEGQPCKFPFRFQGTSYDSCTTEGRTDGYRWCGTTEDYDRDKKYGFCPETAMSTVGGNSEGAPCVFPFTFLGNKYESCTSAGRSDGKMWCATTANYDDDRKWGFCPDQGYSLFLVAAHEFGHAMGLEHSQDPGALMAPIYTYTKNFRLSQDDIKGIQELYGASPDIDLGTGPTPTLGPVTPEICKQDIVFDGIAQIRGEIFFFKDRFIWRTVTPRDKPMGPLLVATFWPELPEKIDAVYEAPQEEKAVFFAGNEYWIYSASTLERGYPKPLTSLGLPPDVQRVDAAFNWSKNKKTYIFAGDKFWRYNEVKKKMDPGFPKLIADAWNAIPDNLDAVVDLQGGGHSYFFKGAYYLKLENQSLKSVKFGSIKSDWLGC

BJ [16] = assay: growth inhibition of engineered Ras-driven BJ cells – cell-based, alamar blue fluorescence, cherrypicked samples, dose response (AID 2631); assay type: functional; conditions: Homo sapiens;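 further: confirmatory dose-response assay in RAS-dependent BJ fibroblasts engineered with TERT, LT and ST, with cytotoxicity read by fluorescence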
[17] = Luminescence Cell-Based Dose Response HTS to Identify Activators of Luciferase Translation or Activity in H4 […] Cells. [Related pubchem assays: 1829 (Project Summary), 1814 (Primary HTS)]; assay type: functional
[18] = Luminescence Cell-Based Dose Confirmation HTS to Identify Activators of 5'UTR Stem-Loop Driven Alpha-Synuclein mRNA Translation in H4 Neuroglioblastoma Cells. [Related pubchem assays: 1829 (Project Summary), 1814 (Primary HTS)]; assay type: functional
H4 = assay: Luminescence Cell-Based Dose Response HTS to Identify Activators of 5'UTR Stem-Loop Driven Prion Protein mRNA Translation in H4 Neuroglioblastoma Cells. [Related pubchem assays: 1829 (Project Summary), 1814 (Primary HTS)]; assay type: functional; conditions: Homo sapiens
Mu-type opioid receptor = Mu-type opioid receptor (Homo sapiens, UniProt P35372); assay: HTS Image-Based Screen for Agonists of the MOR Receptor. [Related pubchem assays (depositor defined):AID1777, AID1785, AID1786, AID2133]; assay type: functional;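 further: imaging of beta-arrestin GFP recruitment into spots after receptor activation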
BJ [19] = assay: BJ-TERT-LT-ST fibroblast viability loss – cell-based, RAS-independent, luminescence, dose response (AID 1935); assay type: functional; conditions: Homo sapiens;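 further: BJ fibroblasts immortalized with TERT plus LT and ST oncogenes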
Prothrombin = Prothrombin (Bos taurus, UniProt P00735); assay: thrombin protease inhibitors – biochemical, fluorescence polarization, uHTS hits, dose response (AID 602369); assay type: functional
BJ [20] = assay: BJ-TERT fibroblast viability loss – cell-based, RAS-independent, luminescence, dose response (AID 1933); assay type: functional; conditions: Homo sapiens
[21] = target: T2, Polyadenylate-binding protein 1; assay: MLLE binding blockers, Cy5 peptide tracer – biochemical, fluorescence polarization, Cy5-PAM2 peptide, secondary, miRNA deadenylation inhibitor project, dose response (AID 602260); assay type: functional; conditions: read-out: IC50_Mean
BJ [22] = assay: cells; assay type: functional, cell-based; conditions: Homo sapiens
[23] = target: T1, Kappa-type opioid receptor; assay type: functional; remark: listed apart in the source
Beta-galactosidase [24] = target: T3, Beta-galactosidase; assay: PubChem AID 485352; assay type: functional
[25] = target: 26S proteasome non-ATPase regulatory subunit 14 (Homo sapiens, UniProt O00487); assay: inhibition of proteasome subunit RPN11 – biochemical, fluorescence polarization, uHTS hits, confirmation (AID 602368); assay type: functional
Sequence of 26S proteasome non-ATPase regulatory subunit 14 (O00487 whole entry): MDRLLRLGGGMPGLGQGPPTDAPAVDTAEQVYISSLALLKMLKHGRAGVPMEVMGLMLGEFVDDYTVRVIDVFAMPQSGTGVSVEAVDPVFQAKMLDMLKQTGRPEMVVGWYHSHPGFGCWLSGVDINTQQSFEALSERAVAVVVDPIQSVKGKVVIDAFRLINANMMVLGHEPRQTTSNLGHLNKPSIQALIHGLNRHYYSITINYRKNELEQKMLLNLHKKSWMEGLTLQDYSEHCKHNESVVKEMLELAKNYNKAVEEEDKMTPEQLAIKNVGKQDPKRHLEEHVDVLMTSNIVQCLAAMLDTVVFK

[26] = target: T4, Delta-type opioid receptor; assay: HTS Image-Based Screen for Agonists of the DOR Receptor. [Related pubchem assays (depositor defined):AID1777, AID1786, AID2133]; assay type: functional
[27] = NIH-3T3 fibroblast cytotoxicity, dose response, cytotoxicity control, cell-based, fluorescence, Alamar Blue, secondary assay (AID 2327); assay type: functional;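 further: NIH-3T3 mouse fibroblasts cultured with fluconazole at 8 µg/mL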
[28] = target: Multidrug resistance protein CDR2 (Candida albicans (strain SC5314 / ATCC MYA-2876) (Yeast), UniProt P78595); assay: inhibition of Nile Red efflux via Candida CDR2 – S. cerevisiae AD1-8u, singleplex, Cherry Pick1 hits, dose response (AID 588604); assay type: functional
HEK293 = assay: EBV LMP1 TES2 canonical NF-kB signalling blockers – cell-based, HEK293, luciferase, cherry-pick, dose response (AID 588343); assay type: functional; conditions: Homo sapiens
Nonstructural protein 1 = Nonstructural protein 1 (Influenza A virus, UniProt Q194T2); assay type: functional, Influenza A virus (A/California/07/2009(H1N1))
[29] = target: Latent membrane protein 1 (Human herpesvirus 4 (strain B95-8), UniProt P03230); assay: LMP1 TES1 pathway selectivity over dsRED control – imaging, HEK293T, dual-color eGFP/dsRED, cherry-picks, selectivity assay for LMP1 NF-kB inhibitor project, dose response (AID 588398); assay type: functional, cell-based
INS1 [30] = assay: suppression of cytokine-induced beta-cell apoptosis – INS-1E, caspase luminescence, dry powder, beta-cell apoptosis inhibitor project, dose response (AID 488848); assay type: functional, cell-based; conditions: Rattus norvegicus
INS1 [31] = assay: suppression of NO production in INS-1E cells – cell-based, Griess absorbance, dry powder, set 2, dose response (AID 488868); assay type: functional; conditions: Rattus norvegicus
INS1 [32] = assay: beta-cell survival under cytokine stress – INS-1E, ATP luminescence, dry powder, dose response (AID 488844); assay type: functional, cell-based; conditions: Rattus norvegicus
[33] = suppression of NO production in INS-1E cells – cell-based, Griess absorbance, dry powder, set 3, dose response (AID 488870); assay type: functional; conditions: Rattus norvegicus
INS1 [34] = assay: INS-1E mitochondrial potential loss inhibitors – cell-based, JC-1 fluorescence, dry powder, set 2, dose response (AID 488867); assay type: functional; conditions: Rattus norvegicus
[35] = target: Dual specificity protein kinase CLK4 (Homo sapiens, UniProt Q9HAZ1); assay type: functional
[36] = target: Serine/threonine-protein kinase pim-3 (Homo sapiens, UniProt Q86V86); assay type: functional;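 further: value obtained as one member of a broad kinase panel profiling effort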
[37] = target: Casein kinase I isoform delta (Homo sapiens, UniProt P48730); assay type: functional;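 further: measured as one member (CSNK1D) of a kinome panel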
Sequence of Casein kinase I isoform delta (P48730 whole entry, canonical isoform): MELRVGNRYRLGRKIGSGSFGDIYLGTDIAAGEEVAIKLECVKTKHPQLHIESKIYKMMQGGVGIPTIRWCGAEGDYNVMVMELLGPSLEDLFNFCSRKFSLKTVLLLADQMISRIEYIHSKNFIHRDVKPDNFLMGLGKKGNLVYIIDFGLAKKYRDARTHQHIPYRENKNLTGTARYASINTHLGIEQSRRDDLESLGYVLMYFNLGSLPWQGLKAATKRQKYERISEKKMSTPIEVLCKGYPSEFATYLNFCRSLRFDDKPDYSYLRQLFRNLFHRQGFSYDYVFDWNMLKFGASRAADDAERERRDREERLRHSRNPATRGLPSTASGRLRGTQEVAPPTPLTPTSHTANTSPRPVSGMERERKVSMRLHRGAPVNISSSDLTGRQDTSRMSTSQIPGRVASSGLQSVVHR

[38] = target: Dual specificity tyrosine-phosphorylation-regulated kinase 1A (Homo sapiens, UniProt Q13627); assay type: functional;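 further: measured against DYRK1A as one member of a broad kinome profiling panel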
[39] = target: Serine/threonine-protein kinase pim-1 (Homo sapiens, UniProt P11309); assay type: functional
Sequence of Serine/threonine-protein kinase pim-1 (P11309 whole entry): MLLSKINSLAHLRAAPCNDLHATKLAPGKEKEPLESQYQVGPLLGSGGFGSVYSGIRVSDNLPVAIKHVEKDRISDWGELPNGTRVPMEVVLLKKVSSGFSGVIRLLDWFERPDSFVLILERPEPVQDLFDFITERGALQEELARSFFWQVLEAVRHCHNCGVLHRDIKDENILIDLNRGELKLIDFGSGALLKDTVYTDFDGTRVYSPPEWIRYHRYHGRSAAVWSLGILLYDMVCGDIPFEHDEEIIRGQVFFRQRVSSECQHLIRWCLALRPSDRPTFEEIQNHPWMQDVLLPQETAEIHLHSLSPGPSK

[40] = target: Casein kinase II subunit alpha (Homo sapiens, UniProt P68400); assay type: functional
[41] = target: Mitogen-activated protein kinase kinase kinase kinase 4 (Homo sapiens, UniProt O95819); assay type: functional
[42] = target: DNA dC->dU-editing enzyme APOBEC-3A (Homo sapiens, UniProt P31941); assay: SAR analysis of small molecule inhibitors of APOBEC3A DNA Deaminase via a fluorescence-based single-stranded DNA deaminase assay - Set 2.; assay type: functional; conditions: read-out: IC50_Mean
[43] = target: DNA dC->dU-editing enzyme APOBEC-3G (Homo sapiens, UniProt Q9HC16); assay: SAR analysis of small molecule inhibitors of APOBEC3G DNA Deaminase via a fluorescence-based single-stranded DNA deaminase assay - Set 2.; assay type: functional; conditions: read-out: IC50_Mean
Sequence of DNA dC->dU-editing enzyme APOBEC-3G (Q9HC16 whole entry): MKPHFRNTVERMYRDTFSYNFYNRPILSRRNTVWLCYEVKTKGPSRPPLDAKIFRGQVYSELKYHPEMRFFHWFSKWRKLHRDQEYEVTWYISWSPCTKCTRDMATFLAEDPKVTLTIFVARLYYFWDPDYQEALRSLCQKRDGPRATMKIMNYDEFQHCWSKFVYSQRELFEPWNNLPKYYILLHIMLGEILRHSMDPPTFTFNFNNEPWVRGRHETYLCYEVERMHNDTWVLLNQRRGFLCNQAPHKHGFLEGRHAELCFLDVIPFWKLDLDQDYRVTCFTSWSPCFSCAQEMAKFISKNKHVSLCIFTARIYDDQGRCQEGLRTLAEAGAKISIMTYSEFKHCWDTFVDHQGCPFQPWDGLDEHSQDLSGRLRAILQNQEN

[44] = target: T5, Sphingosine 1-phosphate receptor 4 (Homo sapiens, UniProt O95977); assay: Late-stage fluorescence-based dose-response cell-based counterscreen assay to identify agonists of the Sphingosine 1-Phosphate Receptor 3 (S1P3): Sphingosine 1-Phosphate Receptor 4 (S1P4) agonist assay.; assay type: functional
T5 sequence (O95977 whole entry): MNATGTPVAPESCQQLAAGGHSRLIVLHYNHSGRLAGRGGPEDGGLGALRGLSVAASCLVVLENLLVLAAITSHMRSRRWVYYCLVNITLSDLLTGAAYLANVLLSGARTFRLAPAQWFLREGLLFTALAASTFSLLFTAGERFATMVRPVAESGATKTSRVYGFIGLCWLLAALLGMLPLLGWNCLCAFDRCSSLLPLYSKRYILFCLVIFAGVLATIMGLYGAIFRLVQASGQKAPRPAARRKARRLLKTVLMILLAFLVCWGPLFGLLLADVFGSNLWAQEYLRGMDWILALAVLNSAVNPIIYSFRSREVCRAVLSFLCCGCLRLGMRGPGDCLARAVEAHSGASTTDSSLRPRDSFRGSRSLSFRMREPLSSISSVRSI

[45] = target: Sphingosine 1-phosphate receptor 2 (Homo sapiens, UniProt O95136); assay: Late-stage fluorescence-based dose-response cell-based counterscreen assay to identify agonists of the Sphingosine 1-Phosphate Receptor 3 (S1P3): Sphingosine 1-Phosphate Receptor 2 (S1P2) agonist assay.; assay type: functional

Sequence of Glycogen synthase kinase-3 alpha (P49840 whole entry): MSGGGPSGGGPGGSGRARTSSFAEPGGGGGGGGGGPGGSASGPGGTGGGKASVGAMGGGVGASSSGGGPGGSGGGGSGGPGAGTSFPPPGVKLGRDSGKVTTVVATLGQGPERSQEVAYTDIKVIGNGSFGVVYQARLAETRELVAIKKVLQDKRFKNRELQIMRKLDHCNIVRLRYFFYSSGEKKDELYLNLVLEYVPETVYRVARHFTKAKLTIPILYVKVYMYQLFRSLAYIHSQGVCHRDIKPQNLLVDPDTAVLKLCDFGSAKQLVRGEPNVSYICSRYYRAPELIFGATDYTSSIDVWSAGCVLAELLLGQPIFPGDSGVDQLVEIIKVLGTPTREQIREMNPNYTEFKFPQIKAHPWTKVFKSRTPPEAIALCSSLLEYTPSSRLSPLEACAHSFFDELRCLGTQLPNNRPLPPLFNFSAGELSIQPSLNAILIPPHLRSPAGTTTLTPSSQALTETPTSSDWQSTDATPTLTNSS

Cc1cccc(OCC(=O)Nc2ccc3c(c2)C(=O)NC3=O)c1
active: AC50 [1] 8 µM | AC50 [2] 1.36 µM

O=C(Sc1cccc2cccnc12)c1ccccc1Br
active: EC50 [3] 2.48 µM | IC50 [5] 0.514 µM | AC50 [8] 13.3 µM | AC50 [11] 0.383 µM | IC50 (Vero [12]) > 25 µM | IC50 [13] 3.51 µM | CC50 (Vero [14]) 9.91 µM | EC50 (BJ [16]) 0.328 µM | EC50 (BJ [19]) 36.8 µM | EC50 (BJ [20]) 12.7 µM | IC50 [23] 10.5 µM | IC50 [25] 6.65 µM | EC50 [27] 31.8 µM
> 32 µM: IC50 [4]
inactive: IC50 [6] > 66 µM | EC50 (Beta-galactosidase [7]) > 31.5 µM | IC50 [9] > 32 µM | IC50 [10] 57.8 µM | IC50 [15] > 100 µM | EC50 (Mu-type opioid receptor) > 32 µM | IC50 (Prothrombin) > 100 µM | IC50 [21] > 66 µM | EC50 (Beta-galactosidase [24]) > 40 µM | EC50 [26] > 32 µM
> 120 µM (not active): EC50 [17] | EC50 [18] | EC50 (H4)
inconclusive: EC50 (BJ [22]) > 150 µM

O=C(Oc1ccc2c(=O)c(Oc3ccc4ccccc4c3)coc2c1)c1cncc(Br)c1
active: EC50 [28] 22.2 µM

CC(=NNC(=S)Nc1ccc(C)cc1)c1ccccn1
active: AC50 (HEK293) 0.149 µM | IC50 (Nonstructural protein 1) 16.6 µM | AC50 [29] 0.793 µM

COc1ccc(S(=O)(=O)N(C)C[C@@H]2Oc3c(NC(=O)Nc4cccc5ccccc45)cccc3C(=O)N([C@@H](C)CO)C[C@H]2C)cc1
active: AC50 (INS1 [30]) 81.2 µM | AC50 (INS1 [31]) 46.8 µM | AC50 (INS1 [32]) 4.88 µM | AC50 [33] 26.4 µM | AC50 (INS1 [34]) 259 µM

O=c1oc2ccccc2c2[nH]c(-c3ccccc3)nc12
active: Ki [35] 1.26 µM | Ki [36] 1.58 µM | Ki [37] 6.31 µM | Ki [38] 1.58 µM | Ki [39] 1 µM | Ki [40] 2 µM | Ki [41] 5.01 µM

O=C(O)c1cc2ncccn2n1
active: IC50 [42] 2.6 µM | IC50 [43] 1.73 µM

O=C(c1ccc(C2CC2)o1)N(C1CCCCC1)C1CCCCC1
inactive: EC50 [44] > 50 µM | EC50 [45] > 50 µM
